# From ChEMBL document CHEMBL4007384, “Synthesis and optimization of furano[3,2-d]pyrimidines as selective spleen tyrosine kinase (Syk) inhibitors” (Bioorg Med Chem Lett, 2016)
# Legend:
# [1] = target: Serine/threonine-protein kinase PAK 4 (Homo sapiens, UniProt O96013); experiment: Inhibition of PAK4 kinase domain (unknown origin) after 60 mins by TR-FRET assay
# [2] = target: Dual specificity protein kinase CLK2 (Homo sapiens, UniProt P49760); experiment: Inhibition of CLK2 (unknown origin) after 60 mins by TR-FRET assay
# [3] = target: Fibroblast growth factor receptor 1 (Homo sapiens, UniProt P11362); experiment: Inhibition of FGFR1 (unknown origin) after 60 mins by TR-FRET assay
# [4] = target: T1, Mitogen-activated protein kinase kinase kinase kinase 2 (Homo sapiens, UniProt Q12851); experiment: Inhibition of MAP4K2 (unknown origin) after 60 mins by TR-FRET assay
# T1 sequence (Q12851 whole entry): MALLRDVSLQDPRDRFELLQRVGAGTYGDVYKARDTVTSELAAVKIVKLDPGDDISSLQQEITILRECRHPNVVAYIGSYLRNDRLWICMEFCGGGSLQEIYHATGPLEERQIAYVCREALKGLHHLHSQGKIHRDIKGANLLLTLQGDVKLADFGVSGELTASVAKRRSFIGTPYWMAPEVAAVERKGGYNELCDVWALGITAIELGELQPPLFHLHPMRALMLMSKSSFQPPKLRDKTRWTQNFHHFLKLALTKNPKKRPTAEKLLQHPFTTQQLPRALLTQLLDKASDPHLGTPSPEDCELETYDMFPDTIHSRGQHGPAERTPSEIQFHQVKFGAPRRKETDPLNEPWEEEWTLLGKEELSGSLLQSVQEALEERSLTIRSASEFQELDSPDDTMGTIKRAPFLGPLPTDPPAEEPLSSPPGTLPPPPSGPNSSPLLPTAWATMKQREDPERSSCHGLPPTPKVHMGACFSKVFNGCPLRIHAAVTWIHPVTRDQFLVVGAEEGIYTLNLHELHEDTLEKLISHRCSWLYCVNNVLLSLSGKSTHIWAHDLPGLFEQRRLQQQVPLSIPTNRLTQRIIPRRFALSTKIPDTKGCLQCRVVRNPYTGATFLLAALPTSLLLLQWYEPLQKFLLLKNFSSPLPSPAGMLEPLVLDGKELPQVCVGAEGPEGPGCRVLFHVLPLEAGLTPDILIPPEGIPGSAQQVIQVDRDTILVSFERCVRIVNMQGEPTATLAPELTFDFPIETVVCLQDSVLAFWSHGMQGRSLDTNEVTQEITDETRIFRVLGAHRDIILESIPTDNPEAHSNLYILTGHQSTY
# [5] = target: Mitogen-activated protein kinase 9 (Homo sapiens, UniProt P45984); experiment: Inhibition of JNK2 (unknown origin) after 60 mins by TR-FRET assay
# [6] = target: Rho-associated protein kinase 2 (Homo sapiens, UniProt O75116); experiment: Inhibition of ROCK2 (unknown origin) after 60 mins by TR-FRET assay
# [7] = target: Cyclin-dependent kinase 7 (Homo sapiens, UniProt P50613); experiment: Inhibition of CDK7 (unknown origin) after 60 mins by TR-FRET assay
# [8] = target: T2, Tyrosine-protein kinase JAK3 (Homo sapiens, UniProt P52333); experiment: Inhibition of JAK3 (unknown origin) after 60 mins by TR-FRET assay
# T2 sequence (P52333 whole entry): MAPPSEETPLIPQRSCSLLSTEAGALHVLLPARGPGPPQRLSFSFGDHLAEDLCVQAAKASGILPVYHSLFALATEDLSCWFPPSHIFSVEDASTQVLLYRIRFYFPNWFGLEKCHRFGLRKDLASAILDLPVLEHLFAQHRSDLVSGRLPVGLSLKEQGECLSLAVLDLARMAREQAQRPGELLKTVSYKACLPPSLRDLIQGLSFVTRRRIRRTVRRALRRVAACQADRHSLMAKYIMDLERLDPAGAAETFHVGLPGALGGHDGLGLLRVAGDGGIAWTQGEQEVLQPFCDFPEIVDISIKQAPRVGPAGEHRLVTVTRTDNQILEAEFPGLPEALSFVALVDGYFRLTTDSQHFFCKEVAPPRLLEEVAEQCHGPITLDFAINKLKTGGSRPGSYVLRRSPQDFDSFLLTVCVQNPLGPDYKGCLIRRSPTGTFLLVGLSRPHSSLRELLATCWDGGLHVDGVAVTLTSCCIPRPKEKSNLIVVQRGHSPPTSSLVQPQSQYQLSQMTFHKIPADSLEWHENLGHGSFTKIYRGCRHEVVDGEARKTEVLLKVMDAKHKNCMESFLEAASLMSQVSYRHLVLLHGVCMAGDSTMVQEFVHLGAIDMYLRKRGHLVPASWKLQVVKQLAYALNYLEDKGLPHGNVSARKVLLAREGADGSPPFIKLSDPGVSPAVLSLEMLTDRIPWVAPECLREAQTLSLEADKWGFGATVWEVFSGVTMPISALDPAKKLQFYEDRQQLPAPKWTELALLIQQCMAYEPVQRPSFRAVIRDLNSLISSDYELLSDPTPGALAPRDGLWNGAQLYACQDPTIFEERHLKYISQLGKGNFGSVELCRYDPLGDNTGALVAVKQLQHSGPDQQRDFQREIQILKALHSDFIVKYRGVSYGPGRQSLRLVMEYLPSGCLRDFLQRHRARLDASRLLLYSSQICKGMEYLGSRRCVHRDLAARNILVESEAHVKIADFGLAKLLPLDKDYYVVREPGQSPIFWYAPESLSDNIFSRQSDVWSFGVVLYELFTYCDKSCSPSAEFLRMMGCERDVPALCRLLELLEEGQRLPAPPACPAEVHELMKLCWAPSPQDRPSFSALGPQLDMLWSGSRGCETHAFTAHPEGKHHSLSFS
# MAP kinase p38 = MAP kinase p38 (Homo sapiens, UniProt O15264+Q15759+Q16539+P53778); experiment: Inhibition of p38 (unknown origin) after 60 mins by TR-FRET assay
# [9] = target: Tyrosine-protein kinase BTK (Homo sapiens, UniProt Q06187); experiment: Inhibition of BTK (unknown origin) after 60 mins by TR-FRET assay
# [10] = target: Tyrosine-protein kinase JAK2 (Homo sapiens, UniProt O60674); experiment: Inhibition of JAK2 (unknown origin) after 60 mins by TR-FRET assay
# [11] = target: Hepatocyte growth factor receptor (Homo sapiens, UniProt P08581); experiment: Inhibition of c-MET (unknown origin) after 60 mins by TR-FRET assay
# [12] = target: NT-3 growth factor receptor (Homo sapiens, UniProt Q16288); experiment: Inhibition of TrkC (unknown origin) after 60 mins by TR-FRET assay
# [13] = target: Dual specificity tyrosine-phosphorylation-regulated kinase 1A (Homo sapiens, UniProt Q13627); experiment: Inhibition of DYRK1A (unknown origin) after 60 mins by TR-FRET assay
# [14] = target: High affinity nerve growth factor receptor (Homo sapiens, UniProt P04629); experiment: Inhibition of TRKA (unknown origin) after 60 mins by TR-FRET assay
# [15] = target: ALK tyrosine kinase receptor (Homo sapiens, UniProt Q9UM73); experiment: Inhibition of ALK (unknown origin) after 60 mins by TR-FRET assay
# [16] = target: Tyrosine-protein kinase SYK (Homo sapiens, UniProt P43405)
# Description: Inhibition of Syk (unknown origin) after 60 mins by TR-FRET assay
SMILES,IC50 [1] [µM],IC50 [2] [µM],IC50 [3] [µM],IC50 [4] [µM],IC50 [5] [µM],IC50 [6] [µM],IC50 [7] [µM],IC50 [8] [µM],IC50 (MAP kinase p38) [µM],IC50 [9] [µM],IC50 [10] [µM],IC50 [11] [µM],IC50 [12] [µM],IC50 [13] [µM],IC50 [14] [µM],IC50 [15] [µM],IC50 [16] [µM]
Cc1n[nH]c2cc(Nc3nc(NC4CC4)c4occc4n3)ccc12,6.79,> 10,> 10,6.24,> 10,> 10,> 10,> 10,> 10,> 10,4.17,> 10,> 10,> 10,> 10,–,–
FC(F)(F)CNc1nc(Nc2ccc3cn[nH]c3c2)nc2ccoc12,6.44,6.44,> 10,–,> 10,–,> 10,> 10,> 10,> 10,–,> 10,> 10,4.86,> 10,7.63,0.097
CC1(C)OCC(=O)Nc2cc(Nc3nc(NCC(F)(F)F)c4occc4n3)ccc21,> 10,> 10,> 10,2.94,> 10,6.32,> 10,> 10,> 10,5.02,0.236,> 10,7.7,> 10,5.4,> 10,0.009
FC(F)(F)CNc1nc(Nc2ccc(N3CCOCC3)c(Cl)c2)nc2ccoc12,> 10,> 10,> 10,1.57,> 10,> 10,> 10,> 10,–,> 10,2.32,> 10,> 10,> 10,> 10,> 10,0.069
